Results from patent US20250205204A1, “Transcription Factor Brn2 Inhibitory Compounds for Use as Therapeutics” (The University of British Columbia, priority 2021, published 2025).
pIC50: −log10 of the molar value.

Key:
[1] = Metabolic stability in liver microsomes (MLM); assay type: in vitro ADME, mice; details: 0.25 mg/mL protein; for half-life at 1 μM: mouse, liver microsomes, pH 7.4, 1 μM compound, read-out: T1/2 in mins (MLM); for Met Stab % (60 mins) MLM: percent remaining at 60 min, 1 μM compound, 1 mM NADPH
Experimental: Preparation of Potassium Phosphate Buffer, 50 mM (pH 7.4)
Potassium phosphate buffer (Kphos) was prepared by adding 0.647 g potassium phosphate monobasic (KH2PO4) and 3.527 g potassium phosphate dibasic (KH2PO4) to 400 mL of Milli-Q™ water. pH of the buffer was adjusted to 7.4 and volume was made up to 500 mL.
Preparation of Microsomes
Stock solutions of BRN2 inhibitors were prepared in DMSO at a concentration of 1 mM
Preparation of NADPH Solution
• Total Incubation volume: 100 μL • Compound concentration: 1 μM • Protein Concentration: 0.25 mg/mL • NADPH: 1 mM • Final DMSO contain: 0.1% • Number of replicates: 2 • Time points: 0, 5, 15, 30 and 60 min
From the above mix, 70 μL was added to individual wells of 96 well reaction plates and pre-incubated in a 37° C. water bath for 5 min. […] Reactions without NADPH and buffer controls (minus NADPH) at 0 min and 60 min were also incubated to rule out non-NADPH metabolism or chemical instability in the incubation buffer. All reactions were terminated using 100 μL of ice-cold acetonitrile containing internal standard at 0, 5, 15, 30 and 60 min.
Samples were monitored for parent compounds disappearance in MRM mode using LC-MS/MS.
The percent remaining of test compounds and positive control in each sample was determined by considering peak area ratio in the 0 minute sample as 100%. The Half-life of compounds in microsomes is calculated by formula: […]
In vitro intrinsic clearance (CL'int) (units in mL/min/kg) was calculated using the formula.
[formula] • For liver microsomes, scaling factor used was 45 mg microsomal protein per gm liver. • * Indicates liver weight (gm) which varies species wise. For mice the liver weights are 90 gm.

BRN2 = target: T1, BRN2 (Homo sapiens, UniProt P20265); assay: BLI binding; details: result in words
T1 sequence (P20265 1-443): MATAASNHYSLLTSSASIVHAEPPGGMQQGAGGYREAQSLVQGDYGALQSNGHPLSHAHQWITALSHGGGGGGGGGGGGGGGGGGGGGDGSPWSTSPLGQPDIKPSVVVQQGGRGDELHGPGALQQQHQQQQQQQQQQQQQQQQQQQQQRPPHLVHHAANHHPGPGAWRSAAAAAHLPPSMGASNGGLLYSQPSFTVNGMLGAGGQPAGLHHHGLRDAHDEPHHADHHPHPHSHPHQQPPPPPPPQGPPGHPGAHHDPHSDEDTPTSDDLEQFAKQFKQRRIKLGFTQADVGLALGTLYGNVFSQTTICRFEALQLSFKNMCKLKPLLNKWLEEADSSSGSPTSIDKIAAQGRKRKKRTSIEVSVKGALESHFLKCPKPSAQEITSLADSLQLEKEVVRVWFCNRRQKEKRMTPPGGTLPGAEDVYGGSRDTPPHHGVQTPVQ

42D^ENZR cells = assay: Cell proliferation, BRN2 expressing 42D cells (crystal violet); assay type: cell-based; details: about 72 hours; for Growth Specificity: 42D (express BRN2) versus 16D (no BRN2) cells, result in words; for pIC50: 42D cells, proliferation, read-out: 42D IC50
Experimental: Step 3: Cell Proliferation
Plate 42DE^NZR (˜7000 cells per well) and 16D^CRPC (˜5000 cells per well) cells in 96 well plate with a volume of 100 μL per well. • 2. Next day 1 mL aliquots of media are combined with 3× the desired concentration of compounds. The aliquots are vortexed and 50 μL of each 3× concentration is added to the 100 μL of media in each well to give the ix desired concentration.
The following are the desired concentrations:
Approximately 72 hours later, 17 μL of 10% Glutaraldehyde is added to each well and plates are placed on a shaker for 20-30 minutes. • 4. Media is washed off the fixed cells by slow submersion in a container of water. Then the water is removed by tapping the plate upside down. • 5. 75 μL of Crystal Violet™ solution is added into the 96 well plates and placed on a shaker for ˜30 minutes. • 6. Media is washed off the fixed cells by repeated slow submersion in a container of water and the plates are allowed to dry over-night. • 7. Next day, 75 μL of Sorensen Solution is accurately pipetted into each well. The plates placed on a shaker for ˜30 minutes. • 8. Absorbance is measured in the plate at 590 nm.
There is a distinction in TABLES 1 and 2 difference between “Active” and “Specific” or “Specificity”.

Row | Compound | half-life at 1 μM [1] [min] | Met Stab % (60 mins) MLM [1] [%] | BLI binding (BRN2) | Growth Specificity (42D^ENZR cells) | pIC50 (42D^ENZR cells)
1 | O=C1/C(=N\Nc2nc3ccccc3s2)Nc2ccccc21 [7-95] | > 60 | 69 | Positive binding | Specific but weak | ~4.82
2 | O=C1/C(=N\Nc2nc3ccccc3s2)Cc2c(Cl)cccc21 [7-125] | 44 | 36 | No binding | specific | 
3 | O=C1/C(=N\Nc2nc3ccccc3s2)Cc2c(F)cccc21 [7-126] | 15 | 6 | binding | specific | 
4 | CN1C(=O)/C(=N/Nc2nc3ccccc3s2)c2ccccc21 [7-115] | 7 | 2 | No binding | Not specific | 
5 | CC(C)(C)OC(=O)c1ccc2c(c1)C(=O)/C(=N\Nc1nc3ccccc3s1)C2 [7-119] | 27 | 18 | No binding | Not specific | 
6 | O=C1/C(=N\Nc2nc3ccccc3s2)Cc2cc(F)c(F)cc21 [7-97] | > 60 | 69 | Positive binding | Specific to 42D | ~5.70
7 | O=C1/C(=N\Nc2nc3ccccc3s2)Cc2c1cccc2C(F)(F)F [7-91] | > 60 | 67 | Positive binding | Specific to 42D | ~5.70
8 | N#Cc1ccc2c(c1)C/C(=N/Nc1nc3ccccc3s1)C2=O [7-93] | 44 | 39 | no binding | Specific but weak | ~4.82
9 | Nc1ccc2c(c1)C/C(=N/Nc1nc3ccccc3s1)C2=O [7-120] | 24 | 17 | No binding | Not specific | 
10 | O=C1/C(=N\Nc2nc3ccccc3s2)Cc2cc(N3CCOCC3)ccc21 [7-103] | 44 | 42 | No binding | Not specific | 
11 | O=C1/C(=N\Nc2nc3ccccc3s2)Cc2cc(Br)ccc21 [7-94] | > 60 | 50 | Positive binding | Specific to 42D | ~5.70
12 | O=C1/C(=N\Nc2nc3ccccc3s2)Nc2cc(Br)ccc21 [7-116] | > 60 | 64 | No binding | Not specific | 
13 | O=C1Nc2cc(F)ccc2/C1=N\Nc1nc2ccccc2s1 [7-124] | 27 | 21 | No binding | Not specific | 
14 | O=C1/C(=N\Nc2nc3ccccc3s2)Cc2cc(F)ccc21 [7-70, (Z)-2-(2-(benzo[d]thiazol-2-yl)hydrazineylidene)-5-fluoro-2,3-dihydro-1H-inden-1-one] | 50 | 38 | Positive binding | Specific to 42D | ~5.30
15 | COC(=O)c1ccc2c(c1)C(=O)/C(=N\Nc1nc3ccccc3s1)C2 [7-110] | 32 | 25 | No binding | No activity | 
16 | CNC(=O)c1ccc2c(c1)C/C(=N/Nc1nc3ccccc3s1)C2=O [7-117] |  |  | No binding | Not specific | 

Row | Compound | half-life at 1 μM [1] [min] | Met Stab % (60 mins) MLM [1] [%] | BLI binding (BRN2) | Growth Specificity (42D^ENZR cells) | pIC50 (42D^ENZR cells)
17 | O=C1/C(=N\Nc2nc3ccccc3s2)Cc2cccc(C(F)(F)F)c21 [7-106] | 46 | 38 | Positive binding | Specific to 42D cells | ~5.70
18 | Cc1ccc2c(c1)C/C(=N/Nc1nc3ccccc3s1)C2=O [7-96] | 31 | 22 | inconclusive, needs to be repeated | Specific but weak | ~4.82
19 | CNC(=O)c1ccc2c(c1)C(=O)/C(=N\Nc1nc3ccccc3s1)C2 [7-118] |  |  | No binding | very low activity | 
20 | O=C1/C(=N\Nc2nc3ccccc3s2)Cc2cc(N3CCC3)ccc21 [7-113] | 15 | 6 | No binding | precipitates | 
21 | O=C1/C(=N\Nc2nc3ccccc3s2)Oc2ccccc21 [7-90] | 13 | 4 | no binding | Not specific | 
22 | CCc1ccc2c(c1)C/C(=N/Nc1nc3ccccc3s1)C2=O [7-104] | 25 | 17 | No binding | Not specific | 
23 | COC(=O)c1ccc2nc(N/N=C3/Cc4ccccc4C3=O)sc2c1 [7-111] | 15 | 6 | No binding | No activity | 
24 | CN1/C(=N/Nc2nc3ccccc3s2)C(=O)c2ccccc21 [7-114] | 44 | 40 | No binding | precipitates | 
25 | CC(C)c1ccc2c(c1)C/C(=N/Nc1nc3ccccc3s1)C2=O [7-122] | 10 | 1 | No binding | Not specific | 
26 | N#Cc1ccc2c(c1)C(=O)/C(=N\Nc1nc3ccccc3s1)C2 [7-92] | 48 | 41 | Positive binding | Specific but weak | ~4.82
27 | O=C1/C(=N\Nc2nc3ccccc3s2)Cc2ccc(F)cc21 [7-81, (Z)-2-(2-(benzo[d]thiazol-2-yl)hydrazineylidene)-6-fluoro-2,3-dihydro-1H-inden-1-one] | 22 | 26 | Positive binding | Specific to 42D | 
28 | O=C1/C(=N\Nc2nc3ccccc3s2)Cc2c1ccc(F)c2F [7-101] | > 60 | 67 | Positive binding | Specific to 42D cells | 5.60 to 6.00
29 | Clc1cccc2nc(N/N=C3\CCc4ccccc43)sc12 [7-34] | 6 | 0 |  | Non-specific. Effective on both 42D or 16D cells | 
30 | Cc1ccc2nc(N/N=C3/CCc4ccccc43)sc2c1 [7-46] | 13 | 5 |  | Not effective on 42D or 16D cells | 
31 | O=C1/C(=N\Nc2nc3ccccc3o2)Cc2ccccc21 [7-77, (Z)-2-(2-(benzo[d]oxazol-2-yl)hydrazineylidene)-2,3-dihydro-1H-inden-1-one] | 16 | 8 |  | Not specific | 
